For 70 molecules, EC50, IC50 and outcome results are on record in PubChem BioAssay AID179 (DTP/NCI, 2004).

The structures appear in SMILES notation. “And” between values parts separate entries of the source, which are not always exact repeats. Equal values may be shown once. The source made the active and inactive calls.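 The calls were made as follows: active = compounds giving half or more protection of infected cells from virus-caused growth loss, again on retest; inactive = the rest.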

The test system of this assay is CEM cells HIV-1 protection, formazan growth assay. The assay can be described thus: NCI AIDS Antiviral Assay. The conditions noted are these: for IC50: measured here: growth of uninfected CEM cells. A digest of the protocol:
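Category rules: moderately active means at least 50% protection on retest, and confirmed active means 100% protection reproducibly. The underlying data came from a formazan growth assay in HIV-1-infected CEM cells.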

For orientation: EC50 means the concentration giving half of the maximal effect. As usually defined, the IC50 is the concentration that inhibits the measured activity by half. Higher therefore signals weaker potency. With `OCCN(CC(O)C(O)CN(CCO)C(=S)S)C(=S)S` (centres undefined), the EC50 was more than 58.9 µM and the IC50 was more than 58.9 µM.
For `N#Cc1c(N=Cc2ccccc2)c(C(=O)Nc2ccccc2)n2c1CCC2`, the EC50 was more than 50.1 µM and the IC50 was more than 50.1 µM.
As for `CC(=O)[O-].CC(=O)[O-].O=C(N/N=C/c1cc(Cl)cc(Cl)c1[OH2+])c1ccncc1.[Zn+2]`, the result was inactive.
For the molecule `CCOC(=O)c1cn2c(ccc3sc4ccccc4c(=O)c32)n1`, the EC50 is more than 200 µM and the IC50 is more than 200 µM.
Take `OC1CSc2ccccc2-n2cccc21` (centres undefined): the EC50 is more than 138 µM and the concentration for half-maximal inhibition (IC50) was 110 µM.
Consider `CC(=O)OC1SCC2OC(=O)OC21` (centres undefined), for which the EC50 was more than 1230 µM and the IC50 is more than 1230 µM.
`CCCCCCSC[C@H](OC(C)=O)[C@@H](OC(C)=O)[C@@H](OC(C)=O)[C@@H](COC(C)=O)OC(C)=O`: the EC50 was more than 200 µM and the IC50 was 53.7 µM.
For `N#Cc1cn(C2OC(CO)C(O)C2O)c2ncnc(N)c12` (centres undefined) the same measures were more than 0.2 µM and 0.00151 µM.
For `C[C@H]1C(=O)O[C@@H]1[C@H]1COC(C)(C)O1`, the EC50 is more than 200 µM and the concentration for half-maximal inhibition (IC50) was more than 200 µM.
With `Clc1cc2nn(C3CCCCO3)nc2cc1Cl` (centres undefined), the EC50 is more than 200 µM and the IC50 is more than 200 µM.
`COc1cc2c(c(OC)c1OC)-c1ccc(OC)c(=O)cc1C([N+](C)(C)C)CC2` (centres undefined): the EC50 was more than 200 µM and the IC50 came to 11 µM.
For `C=C1CN(S(=O)(=O)c2ccc(C)cc2)CCCN(Cc2ccccn2)CCCN(S(=O)(=O)c2ccc(C)cc2)C1` the same measures were more than 200 µM and more than 200 µM.
Turning to `O=C1c2c(F)c(F)c(F)c(F)c2SC2=Nc3cccc4cccc(c34)N12`, the EC50 was more than 200 µM and the IC50 is 1 µM.
For `Cc1cc(Oc2cnc(=O)[nH]c2)cs1` the same measures were more than 200 µM and more than 200 µM.
The corresponding values for `CC(=O)Nc1ccc(/C=C/C(=O)c2sc(-c3cccnc3)nc2C)cc1` are more than 51.3 µM and more than 51.3 µM.
The corresponding values for `CC(C)=CCOc1cc(O)c2c(O)c3c(cc2c1)CC(C)(C)CC3=O` are more than 100 µM and 7.08 µM.
As to `CCOC(=O)/C(=N/Nc1ccccc1)N1C(=S)C=C(C)NN(C)C1=S`, the EC50 was more than 200 µM and the IC50 is more than 200 µM.
In the case of `COC(=O)c1cc(C(=CCCCCO)c2cc(Cl)c(OC)c(C(=O)OC)c2)cc(Cl)c1OC`, the EC50 is more than 200 µM and the IC50 came out at 23.4 µM.
The corresponding values for `Cc1c(S(=O)(=O)c2ccccc2)c(N)n(Cc2ccccc2)c1C` are more than 200 µM and 74.1 µM.
`Cc1cc(-c2cc(C(C)(C)C)c(O)c(C(C)(C)C)c2)c(C)cc1-c1cc(C(C)(C)C)c(O)c(C(C)(C)C)c1`: the EC50 is more than 100 µM and the IC50 is more than 100 µM.
For `CN(C)c1n/c(=N/c2ncn[nH]2)ss1`, the outcome was inactive.
Turning to `Cc1ccc(OCC2OC(n3cnc4nc(Nc5ccc(Cl)c(Cl)c5)nc(Cl)c43)CC2Oc2ccc(C)cc2)cc1` (centres undefined), the EC50 was more than 100 µM and the IC50 is more than 100 µM.
With `CCN=c1cc2oc3cc(NCC)c(C)cc3c(-c3ccccc3C(=O)OCC)c-2cc1C`, the EC50 is more than 200 µM; the IC50 is 0.0631 µM and 0.12 µM.
`c1cc2n[se]nc2cc1-c1ccc2n[se]nc2c1`: the EC50 was 155 µM and the 50% inhibitory concentration (IC50) is more than 200 µM.
The corresponding values for `CC(C)c1cc(C(C)C)c(S(=O)(=O)N/N=C2\CC3CCC2(C)C3(C)C)c(C(C)C)c1` (centres undefined) are more than 200 µM and 18.6 µM.
The corresponding values for `S=C(N/N=C/c1ccccn1)N1CCCCC1` are more than 0.2 µM and 0.011 µM.
For `CCOC(=O)C(=O)Nc1c(CC)cccc1C(C)C` the same measures were more than 355 µM and more than 355 µM.
As for `O=C1[C@@H]2C(c3ccccc3Br)=NO[C@@H]2C(=O)N1c1ccc(Cc2ccc(N3C(=O)[C@H]4C(c5ccccc5Br)=NO[C@H]4C3=O)cc2)cc1`, the EC50 was more than 9.55 µM and the IC50 was more than 9.55 µM.
For `COc1cc(O)c2cc1Oc1ccc(cc1)CC1c3cc(c(OC)cc3CCN1C)Oc1c(OC)c(OC)c(OC)c3c1[C@H](C2)N(C)CC3` (some centres undefined), the outcome was inactive.
With `C[N+](C)(C)CC1CCC/C1=N/O` (centres undefined), the EC50 was more than 832 µM and the IC50 is more than 832 µM.
Consider `O=S(=O)(c1ccccc1)C1CN(Cc2ccccc2)CCN(Cc2ccccc2)C1`, for which the outcome was inactive.
Turning to `CS(=O)(=O)OCCN1CCN(C(=O)c2ccc(Cl)c3c(Nc4ccc(S(=O)(=O)N=C(N)N)cc4)c4ccccc4nc23)CC1`, the EC50 was more than 33.9 µM and the half-maximal inhibitory concentration (IC50) is more than 33.9 µM.
On to `COC(=O)C1Cc2c(OC)ccc(OC)c2C(O)C1C(=O)OC` (centres undefined), for which the EC50 was more than 200 µM and the IC50 was more than 200 µM.
Take `CC1(C)[C@@H]2C[C@H]1C(Cc1ccc(C[C@H]3c4cc(-c5ccccn5)ncc4[C@H]4C[C@@H]3C4(C)C)cc1)c1cc(-c3ccccn3)ncc12` (some centres undefined): the EC50 is more than 20 µM and the IC50 came to 0.813 µM.
For `O=c1[nH]c(Nc2ccccc2)nc2c1ncn2CC(O)CSCCO` (centres undefined) the same measures were more than 200 µM and more than 200 µM.
For `Clc1ccc(-c2cc(=[N+]3CC[N+](=c4cc(-c5ccc(Cl)cc5)ss4)CC3)ss2)cc1` the same measures were 6.31 µM and 129 µM.
The corresponding values for `CC1=Nc2ccccc2N=C(C)C1` are more than 200 µM and more than 200 µM.
In the case of `CN(CCO)c1nc2c(c(=O)[nH]1)CCC2`, the EC50 was more than 240 µM and the IC50 was more than 240 µM.
As for `CC1=NOC(=O)/C1=C/c1ccc([N+](=O)[O-])cc1`, the EC50 was more than 1070 µM and the IC50 is 933 µM.
For `CSCCCNC(=O)c1csc(-c2csc(CCN)n2)n1` the same measures were more than 661 µM and 85.1 µM.
For `CCCCCCCCCCCCNC(=O)C(O)C(O)C(O)C(COS(=O)(=O)O)OS(=O)(=O)O` (centres undefined) the same measures were more than 200 µM and 30.2 µM.
For `Cc1cc(C)cc(N(C2=NCCS2)C2=NCCS2)c1` the same measures were more than 200 µM and more than 200 µM.
Turning to `Cc1ccc(C(=O)Nc2ccccc2)cc1N=NN(C)C`, the EC50 was more than 331 µM and the IC50 amounted to 288 µM.
The corresponding values for `Cc1nnc2n1N=C1CC(C)(C)CC(=O)C1S2` (centres undefined) are more than 105 µM and more than 105 µM.
As for `Brc1ccccc1CCc1ncc[nH]1`, the EC50 was more than 575 µM and the IC50 was 234 µM.
The corresponding values for `C=CC1=CSNN1` are more than 437 µM and 347 µM.
As for `Fc1ccccc1C=NC12CC3CC(CC(C3)C1)C2`, the EC50 is more than 20.4 µM and the IC50 is more than 20.4 µM.
Turning to `Cc1cccc(-c2cc(=O)c3cc(C)c(C)c(C(=O)O)c3o2)c1`, the result was inactive.
On to `CN(C)c1ccc(-c2cc(C(=O)O)c3c(ccc4ccccc43)n2)cc1`, for which the EC50 is more than 20.9 µM and the IC50 was more than 20.9 µM.
Consider `CCOP(=O)(OCC)/C(=C/c1cccs1)CC(C)=O`, for which the EC50 is more than 200 µM and the IC50 was more than 200 µM.
The molecule `Nc1ccc(C2c3ccccc3Oc3ccccc32)cc1` registered an EC50 of more than 200 µM and an IC50 of 30.9 µM.
For `Nc1c(S(=O)(=O)c2ccccc2)c2nc3ccccc3nc2n2c1nc1ccccc12` the same measures were more than 8.91 µM and more than 8.91 µM.
Take `O[C@]12c3ccccc3C1CCCCC2N1CCOCC1` (some centres undefined): the EC50 is more than 200 µM and the IC50 was more than 200 µM.
On to `O=C(N/N=C(/c1nc2ccc([N+](=O)[O-])cc2[nH]c1=O)C(O)c1ccc([N+](=O)[O-])cc1)c1ccncc1` (centres undefined), for which the EC50 is more than 138 µM and the IC50 came out at 129 µM.
For `O=C1c2ccccc2C(=O)c2cscc21` the same measures were more than 77.6 µM and 18.6 µM.
For `CN1C(=O)N(C)C(O)C(Cl)(Cl)C1=O` (centres undefined) the same measures were more than 200 µM and more than 200 µM.
For `CC(C)CCC[C@@H](C)[C@H]1CC[C@H]2[C@@H]3CC[C@H]4C[C@@H](CCC=C(c5cc(Cl)c(O)c(C(=O)O)c5)c5cc(Cl)c(O)c(C(=O)O)c5)CC[C@]4(C)[C@H]3CC[C@]12C` the same measures were 37.2 µM and 295 µM.
Take `N#CC(/C=C/c1ccccc1)Nc1ccccc1CO` (centres undefined): the EC50 was more than 27.5 µM and the IC50 is more than 27.5 µM.
Turning to `O=C1CN(S(=O)(=O)c2ccc([N+](=O)[O-])cc2)CC(=O)CN(S(=O)(=O)c2ccc([N+](=O)[O-])cc2)C1`, the EC50 is more than 200 µM and the IC50 was more than 200 µM.
Consider `COC(=O)C1CCCN1C(=O)C(Cc1cn(S(=O)(=O)c2ccc(C)cc2)cn1)NC(=O)OC(C)(C)C` (centres undefined), for which the EC50 is more than 200 µM and the IC50 was more than 200 µM.
Consider `O=C(CC(=O)n1nc(-c2ccccc2)c(N=Nc2ccccc2Cl)c1-c1ccccc1)Nc1ccc(Cl)cc1`, for which the EC50 is more than 33.9 µM and the IC50 was more than 33.9 µM.
Regarding `O=C1c2ccccc2C(=O)c2c1ccc1c3ccccc3n(Cc3ccccc3)c21`, the result was inactive.
Consider `O=C(O)c1[nH][nH]c(=O)c1N=Nc1ccc(/C=C/c2ccc(N=Nc3c(C(=O)O)[nH][nH]c3=O)cc2S(=O)(=O)O)c(S(=O)(=O)O)c1`, for which the EC50 was more than 200 µM and the IC50 was more than 200 µM.
In the case of `CN(C)c1ccc(C2=NC(=S)NC(c3cc(Cl)ccc3O)C2)cc1` (centres undefined), the EC50 was more than 200 µM and the half-inhibitory concentration (IC50) is 30.2 µM.
For `CCCCSC1=NCCCS1` the same measures were more than 275 µM and more than 275 µM.
For `O=C(Nc1cccc([N+](=O)[O-])c1)C(=O)C(C(=O)c1ccccc1F)C1OC(=O)C2C=CC=CC21` (centres undefined) the same measures were more than 282 µM and 4.07 µM.
As to `CC1(C)COC(c2ccc(CC(O)c3ccccc3)cc2)=N1` (centres undefined), the EC50 is more than 200 µM and the IC50 was 41.7 µM.
The corresponding values for `N/N=C(\C(=O)Nc1ccc([N+](=O)[O-])cc1)C(C1=Nc2cc([N+](=O)[O-])ccc2NC1)[N+](=O)[O-]` (centres undefined) are more than 30.9 µM and more than 30.9 µM.
On to `Cc1c(Cl)cccc1Nc1ncccc1C(=O)OCC(O)CO` (centres undefined), for which the EC50 is more than 200 µM and the IC50 stood at 91.2 µM.
For `CCOC(=O)c1nc(SC)sc1NC(=O)c1ccc(Cl)cc1` the same measures were more than 200 µM and 195 µM.
